Experimental data as given in patent publication US20170190671A1, “BIS(ARYL)CATECHOL DERIVATIVES AS HERBICIDES” (E I DU PONT DE NEMOURS AND COMPANY, priority 2014, published 2017).

Experiments:
Assay in all cases: Test C preemergence
Type in all cases: in vivo
[1] = system: Italian ryegrass (Lolium multiflorum); settings: Lolium multiflorum, pre-emergence, 336 h, scale 0 to 100, read-out: Plant response rating, Ryegrass, Italian
Procedure, shortened: (§1)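 Treatment is preemergence to seeds in a loam and sand soil, or postemergence to plants 2 to 18 cm high in a peat moss-based medium. The compound is delivered in a non-phytotoxic solvent mixture including surfactant. Effects are judged by eye 13 to 15 days later on a 0 to 100 scale.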

[2] = system: barnyardgrass (Echinochloa crus-galli); settings: Echinochloa crus-galli, pre-emergence, read-out: Plant response rating, Barnyardgrass
Procedure, shortened: as §1

[3] = system: blackgrass (Alopecurus myosuroides); settings: Alopecurus myosuroides, pre-emergence, 336 h, scale 0 to 100, read-out: Plant response rating, Blackgrass
Procedure, shortened: as §1

corn (Zea mays) = settings: Zea mays, pre-emergence, 336 h, scale 0 to 100
Procedure, shortened: as §1

[4] = system: galium (catchweed bedstraw, Galium aparine); settings: Galium, pre-emergence, 336 h, scale 0 to 100, read-out: Plant response rating, Galium
Procedure, shortened: as §1

[5] = system: giant foxtail (Setaria faberii); settings: Setaria faberi, pre-emergence, 336 h, scale 0 to 100, read-out: Plant response rating, Foxtail, Giant
Procedure, shortened: as §1

[6] = system: lambsquarters (Chenopodium album); settings: Chenopodium album, pre-emergence, 336 h, scale 0 to 100, read-out: Plant response rating, Lambsquarters
Procedure, shortened: as §1

[7] = system: large (Lg) crabgrass (Digitaria sanguinalis); settings: Digitaria sanguinalis, pre-emergence, 336 h, scale 0 to 100, read-out: Plant response rating, Crabgrass, Large
Procedure, shortened: as §1

[8] = system: oilseed rape (Brassica napus); settings: Brassica napus, pre-emergence, scale 0 to 100, read-out: Plant response rating, Oilseed Rape
Procedure, shortened: as §1

[9] = system: ragweed (common ragweed, Ambrosia elatior); settings: Ambrosia artemisiifolia, pre-emergence, 336 h, scale 0 to 100, read-out: Plant response rating, Ragweed
Procedure, shortened: as §1

soybean (Glycine max) = settings: Glycine max, pre-emergence, scale 0 to 100, read-out: Plant response rating, Soybean
Procedure, shortened: as §1

[10] = system: velvetleaf (Abutilon theophrasti); settings: Abutilon theophrasti, pre-emergence, scale 0 to 100, read-out: Plant response rating, Velvetleaf
Procedure, shortened: as §1

[11] = system: waterhemp (common waterhemp, Amaranthus rudis); settings: Amaranthus tuberculatus, pre-emergence, scale 0 to 100, read-out: Plant response rating, Waterhemp
Procedure, shortened: as §1

[12] = system: winter wheat (Triticum aestivum); settings: Triticum aestivum, pre-emergence, 336 h, scale 0 to 100, read-out: Plant response rating, Wheat
Procedure, shortened: as §1

[13] = system: yellow nutsedge (Cyperus esculentus); settings: Cyperus, pre-emergence, 336 h, scale 0 to 100, read-out: Plant response rating, Nutsedge, Yellow
Procedure, shortened: as §1

Question: What does the source list for `N#Cc1cccc(Oc2ncc(Cl)cn2)c1Oc1ncc(C(F)(F)F)cn1` [Compound 38, 3-[(5-chloro-2-pyrimidinyl)oxy]-2-[[5-(trifluoromethyl)-2-pyrimidinyl]oxy]-benzonitrile]?
Answer: pest or weed control at 31 g/ha ([1]; 31 g ai/ha, preemergence): 10%; pest or weed control at 62 g/ha ([1]; 62 g ai/ha, preemergence): 60%; pest or weed control at 125 g/ha ([1]; 125 g ai/ha, preemergence): 90%; pest or weed control at 16 g/ha ([1]; Preemergence, 16 g ai/ha): 0%; pest or weed control at 31 g/ha ([2]; 31 g ai/ha, preemergence, scale 0 to 100): 85%; pest or weed control at 62 g/ha ([2]; 62 g ai/ha, preemergence, scale 0 to 100): 100%; pest or weed control at 125 g/ha ([2]; 125 g ai/ha, preemergence, scale 0 to 100): 100%; pest or weed control at 16 g/ha ([2]; Preemergence, 16 g ai/ha, scale 0 to 100 (0 no effect, 100 complete control)): 50%; pest or weed control at 31 g/ha ([3]; 31 g ai/ha, preemergence): 35%; pest or weed control at 62 g/ha ([3]; 62 g ai/ha, preemergence): 50%; pest or weed control at 125 g/ha ([3]; 125 g ai/ha, preemergence): 90%; pest or weed control at 16 g/ha ([3]; Preemergence, 16 g ai/ha): 0%; Corn plant response rating (crop injury, 0 = no effect, 100 = complete kill) at 31 g/ha (corn (Zea mays); 31 g ai/ha, preemergence): 30%; Corn plant response rating (crop injury, 0 = no effect, 100 = complete kill) at 62 g/ha (corn (Zea mays); 62 g ai/ha, preemergence): 45%; Corn plant response rating (crop injury, 0 = no effect, 100 = complete kill) at 125 g/ha (corn (Zea mays); 125 g ai/ha, preemergence): 65%; Corn plant response rating (crop injury, 0 = no effect, 100 = complete kill) at 16 g/ha (corn (Zea mays); Preemergence, 16 g ai/ha): 10%; pest or weed control at 31 g/ha ([4]; 31 g ai/ha, preemergence): 90%; pest or weed control at 62 g/ha ([4]; 62 g ai/ha, preemergence): 100%; pest or weed control at 125 g/ha ([4]; 125 g ai/ha, preemergence): 100%; pest or weed control at 16 g/ha ([4]; Preemergence, 16 g ai/ha): 80%; pest or weed control at 31 g/ha ([5]; 31 g ai/ha, preemergence): 95%; pest or weed control at 62 g/ha ([5]; 62 g ai/ha, preemergence): 100%; pest or weed control at 125 g/ha ([5]; 125 g ai/ha, preemergence): 100%; pest or weed control at 16 g/ha ([5]; Preemergence, 16 g ai/ha): 85%; pest or weed control at 31 g/ha ([6]; 31 g ai/ha, preemergence): 90%; pest or weed control at 62 g/ha ([6]; 62 g ai/ha, preemergence): 95%; pest or weed control at 125 g/ha ([6]; 125 g ai/ha, preemergence): 98%; pest or weed control at 16 g/ha ([6]; Preemergence, 16 g ai/ha): 85%; pest or weed control at 31 g/ha ([7]; 31 g ai/ha, preemergence): 100%; pest or weed control at 62 g/ha ([7]; 62 g ai/ha, preemergence): 100%; pest or weed control at 125 g/ha ([7]; 125 g ai/ha, preemergence): 100%; pest or weed control at 16 g/ha ([7]; Preemergence, 16 g ai/ha): 100%; plant injury at 31 g/ha ([8]; 31 g ai/ha, preemergence): 100%; plant injury at 62 g/ha ([8]; 62 g ai/ha, preemergence): 100%; plant injury at 125 g/ha ([8]; 125 g ai/ha, preemergence): 100%; plant injury at 16 g/ha ([8]; Preemergence, 16 g ai/ha): 90%; pest or weed control at 31 g/ha ([9]; 31 g ai/ha, preemergence): 25%; pest or weed control at 62 g/ha ([9]; 62 g ai/ha, preemergence): 75%; pest or weed control at 125 g/ha ([9]; 125 g ai/ha, preemergence): 90%; pest or weed control at 16 g/ha ([9]; Preemergence, 16 g ai/ha): 0%; plant injury at 31 g/ha (soybean (Glycine max); 31 g ai/ha, preemergence): 55%; plant injury at 62 g/ha (soybean (Glycine max); 62 g ai/ha, preemergence): 60%; plant injury at 125 g/ha (soybean (Glycine max); 125 g ai/ha, preemergence): 90%; plant injury at 16 g/ha (soybean (Glycine max); Preemergence, 16 g ai/ha): 20%; pest or weed control at 31 g/ha ([10]; 31 g ai/ha, preemergence): 90%; pest or weed control at 62 g/ha ([10]; 62 g ai/ha, preemergence): 98%; pest or weed control at 125 g/ha ([10]; 125 g ai/ha, preemergence): 100%; pest or weed control at 16 g/ha ([10]; Preemergence, 16 g ai/ha): 45%; pest or weed control at 31 g/ha ([11]; 31 g ai/ha, preemergence): 100%; pest or weed control at 62 g/ha ([11]; 62 g ai/ha, preemergence): 100%; pest or weed control at 125 g/ha ([11]; 125 g ai/ha, preemergence): 100%; pest or weed control at 16 g/ha ([11]; Preemergence, 16 g ai/ha): 100%; plant injury at 31 g/ha ([12]; 31 g ai/ha, preemergence): 0%; plant injury at 62 g/ha ([12]; 62 g ai/ha, preemergence): 15%; plant injury at 125 g/ha ([12]; 125 g ai/ha, preemergence): 35%; plant injury at 16 g/ha ([12]; Preemergence, 16 g ai/ha): 0%; pest or weed control at 31 g/ha ([13]; 31 g ai/ha, preemergence): 20%; pest or weed control at 62 g/ha ([13]; 62 g ai/ha, preemergence): 70%; pest or weed control at 125 g/ha ([13]; 125 g ai/ha, preemergence): 85%; pest or weed control at 16 g/ha ([13]; Preemergence, 16 g ai/ha): 0%
